In patent publication US20200270588A1, “GLUCOSYL TRANSFERASE POLYPEPTIDES AND METHODS OF USE” (Syngenta Participations AG, priority 2017, published 2020):
Several values for one entry are separate records, joined by “and”; a condition that tells them apart may be missing. Equal entries are not always repeated.

How the values were obtained:
[1] = biological target: T1, SEQ ID 35, mutant bx-type glucosyl transferase (Zea mays, UniProt Q8W2B7, A437P); experiment: LC/MS glucosyl transferase assay (glucoside peak area), purified enzyme; format: biochemical; details: about 60 min, ~15 pmol enzyme, relative quantification only
T1 construct: 35; 3.66E+05; 8.20E+07; 5.96E+06; His tag; made in house
Procedure: (§1) In an alternative method for assaying the various enzymes, the test glucosyl transferase enzyme is reacted with substrates exactly as above except that the assay is stopped by adding an equal volume of acetonitrile. Alternatively 50 or 100 μl samples from assay reactions are added to 500 μl ethyl acetate to stop the reaction. In this case samples are then vortexed and 400 μl of the ethyl acetate partition removed, dried down, and resuspended in 100 μl 80:20 acetonitrile/water. The formation of product gluco side and/or disappearance of substrate test herbicide is then monitored directly by LC/MS. Samples are analyzed by LC-MS using an Agilent 1290 liquid chromatography system and Thermo Q-Exactive mass spectrometer. The chromatography is achieved on a Waters Acquity C18 BEH (50×2.1 mm) 1.7 μm particle size column, using a 6 minute gradient run of Water (0.2% formic acid) and Acetonitrile. The Q-Exactive is operated in positive ionisation electrospray mode, using Full scan-AIF mode, at 35,000 resolution, between 100-800 m/z. All analytes are identified from the full scan data to within at least 5 ppm accuracy of their predicted pseudo-molecular ion [M+H]^+ m/z value. In order to obtain quantitative data standard curves are run using herbicides and herbicide glucosides synthesized as standards. Where these synthetic glucosides were not available the LC/MS assay could only be used to provide relative data.
(§2) DNA sequences, optimized for E. coli codon usage, were cloned, expressed and the various proteins purified and assayed as described in the foregoing examples. Using the UDP assay (as described in examples 1, 3 and 6) the data obtained from the Zea mays bx8 w/t protein and its variants was noisy due to relatively high background rates in DMSO reagent blanks. The values reported in the table 15 were thus monitored by LC/MS as described in example 1.

[2] = test system: SEQ ID 43, mutant bx-type glucosyl transferase; experiment: as above; format: biochemical; details: about 60 min, ~15 pmol enzyme, nd = not detectable
Procedure: as §1, §2

[3] = biological target: T2, Zea mays bx8 (SEQ ID No: 2) with GIGVD peptide insert in place of D442 (Zea mays, UniProt Q8W2B7, INS441GIGV); experiment: as above; format: biochemical; details: LC/MS assay run for 30 min
T2 construct: His tag (N); made in house; host or cells: E. coli, pET24a
Procedure: as §1, with “Where these synthetic glucosides were not available the LC/MS assay could only be used to provide relative data.” left out

[4] = test system: transgenic tobacco plants expressing zmBX8 (SEQ ID No 2); experiment: Glass house spray test on tobacco, percent damage; format: in vivo; details: 30 g/ha
Procedure: In the present example, Zea mays BX8 or BX9 or orthologues of BX8/9, for example SEQ ID Nos. 1-59 and various herbicide-active mutations and combinations of mutations thereof (e.g. as listed in Tables 1-9) are expressed in transgenic tobacco. DNA sequences that encode these polypeptides (optimized for tobacco or, optionally, codon optimized according to a target crop such as soybean) are prepared synthetically and obtained commercially from Genewiz (South Plainfield, USA). Each sequence is designed to include a 5′ fusion with TMV omega 5′ leader (SEQ ID NO: 109). The DNA sequences are flanked at the 5′ end with XhoI and at the 3′ end with KpnI to facilitate direct cloning into a suitable binary vector for Agrobacterium-based plant transformation. […]
Three transgenic populations of about forty tobacco plants and comprising, a glucosyl transferase gene encoding either zmBX8 (SEQ ID NO 2) or zmBX9 (SEQ ID NO 1) were thus produced. […] Plants were assessed for damage and scored at 7 and 14 days after treatment (DAT).

T1 sequence (Q8W2B7 whole entry A437P): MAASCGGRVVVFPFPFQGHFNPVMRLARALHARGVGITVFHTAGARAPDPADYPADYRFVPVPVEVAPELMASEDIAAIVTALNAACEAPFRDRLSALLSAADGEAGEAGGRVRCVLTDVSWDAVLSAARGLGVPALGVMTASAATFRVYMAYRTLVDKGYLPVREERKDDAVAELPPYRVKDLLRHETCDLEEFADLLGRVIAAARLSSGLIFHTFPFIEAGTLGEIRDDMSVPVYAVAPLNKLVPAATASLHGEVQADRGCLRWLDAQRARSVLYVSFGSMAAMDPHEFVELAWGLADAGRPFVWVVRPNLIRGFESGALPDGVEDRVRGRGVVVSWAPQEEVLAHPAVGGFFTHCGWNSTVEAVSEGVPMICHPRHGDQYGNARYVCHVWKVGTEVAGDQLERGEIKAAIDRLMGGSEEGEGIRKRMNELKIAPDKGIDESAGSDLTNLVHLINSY
T2 sequence (Q8W2B7 other isoform, or with tags, fused parts or gaps INS441GIGV): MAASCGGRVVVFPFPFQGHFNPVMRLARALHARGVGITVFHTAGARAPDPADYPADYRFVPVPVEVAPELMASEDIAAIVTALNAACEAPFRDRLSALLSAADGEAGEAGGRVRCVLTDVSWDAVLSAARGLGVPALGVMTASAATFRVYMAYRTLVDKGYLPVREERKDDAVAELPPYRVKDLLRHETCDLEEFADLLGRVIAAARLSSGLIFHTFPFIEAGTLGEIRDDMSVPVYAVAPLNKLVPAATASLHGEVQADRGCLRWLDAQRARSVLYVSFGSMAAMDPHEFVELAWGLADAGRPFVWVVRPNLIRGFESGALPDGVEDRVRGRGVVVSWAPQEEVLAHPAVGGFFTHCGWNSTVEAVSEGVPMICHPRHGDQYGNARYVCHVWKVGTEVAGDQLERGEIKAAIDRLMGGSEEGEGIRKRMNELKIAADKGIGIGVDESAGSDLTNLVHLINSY

Structure (SMILES)	integrated peak area of beta-glucoside product [1]	integrated peak area of beta-glucoside product [2]	integrated peak area of glucoside product [3]	tolerance [4]
CN1CC(O)N(c2cc(C(F)(F)F)ccn2)C1=O (stereo not shown) [Compound V]	5.96E+06 and 4.40E+06	3.88E+05 and 2.26E+05	2.5E6 units	
CON1C(=O)N(c2cc(C(F)(F)F)ccn2)C(O)[C@@H]1C (stereo partly shown) [Compound VI]				little or no tolerance
